Results reported in publication PMC8901748, “A novel prostaglandin E receptor 4 (EP4) small molecule antagonist induces articular cartilage regeneration” (Cell Discovery, 2022).

How the values were obtained:
[1] = test system: Mmp3, Mmp13, Col2, p-CREB, p-STAT3, p-p65, IκBα in primary mouse chondrocytes; assay: Western blotting in primary articular chondrocytes; type: cell-based
Description: ATDC5 cell line was purchased from Riken BioResource Center (Tsukuba, Japan) and grown in a 1:1 mixture of DMEM/F12 medium (Corning, 10-092-CVR) supplemented with 5% fetal bovine serum (Gibco, 10099, USA) and 1% penicillin-streptomycin solution (Life Technologies). Cells were maintained at 37 °C under 5% CO2. Primary chondrocytes were obtained from knee joint cartilage of newborn mice. Knee joints were dissected from the tibia plateau and femoral condyle articular cartilage of mouse pups and digested in 0.1% collagenase type II (Sigma) overnight at 37 °C and chondrocytes were harvested by centrifugation. Primary chondrocytes were cultured at a density of 5 × 10^3 cells per ml at 37 °C with 5% CO2. DMEM/F12 medium with 10% fetal bovine serum (FBS) and 1% penicillin–streptomycin was used to culture the primary chondrocytes. Chondrogenic differentiation were induced with chondrogenic medium, which contains insulin-transferrin-selenium (ITS) (Sigma, I3146), 10 ng/ml TGF-β3 (PEPROTECH, 100-36E, USA), 100 nM Dexamethasone (Sigma, D4902), 50 μg/ml VC (Sigma), 1 mM sodium pyruvate (Sigma) and 40 μg/ml proline (Sigma), and/or treatment with rmIL-1β (R&D, 401-ML/CF), TNFα (PEPROTECH, 300-01A-50) in DMEM/F12 for indicated days. Western blotting was performed according to standard protocols. Antibodies used were: rabbit anti-Mmp3 (1:1000, HuaBio), rabbit anti-Mmp13 (1:500, abcam, ab39012), rabbit anti-p-CREB (1:2000, Cell Signaling Technology, 87G3), rabbit anti-CREB (1:2000, Cell Signaling Technology, 48H2), mouse anti-GAPDH (1:5000; Sigma-Aldrich, G8795), rabbit anti-Col2 (Abcam, Ab34712), rabbit anti-STAT3 (1:2000; Abcam, ab68153), rabbit anti-p-STAT3 (Y705) (1:2000; Abcam, ab76315), rabbit anti -p65 (1:1000; CST, 3034), rabbit anti-p-p65 (1:1000; CST, 3033), and rabbit anti-IκBα (1:1000; Abways, CY5026).

[2] = test system: primary chondrocytes; assay: Chondrocyte micromass differentiation, Alcian blue staining; type: cell-based, mouse; settings: chondrogenic media, 7 days
Description: ATDC5 cell line was purchased from Riken BioResource Center (Tsukuba, Japan) and grown in a 1:1 mixture of DMEM/F12 medium (Corning, 10-092-CVR) supplemented with 5% fetal bovine serum (Gibco, 10099, USA) and 1% penicillin-streptomycin solution (Life Technologies). Cells were maintained at 37 °C under 5% CO2. Primary chondrocytes were obtained from knee joint cartilage of newborn mice. Knee joints were dissected from the tibia plateau and femoral condyle articular cartilage of mouse pups and digested in 0.1% collagenase type II (Sigma) overnight at 37 °C and chondrocytes were harvested by centrifugation. Primary chondrocytes were cultured at a density of 5 × 10^3 cells per ml at 37 °C with 5% CO2. DMEM/F12 medium with 10% fetal bovine serum (FBS) and 1% penicillin–streptomycin was used to culture the primary chondrocytes. […]
Micromass cultures were rinsed with PBS, fixed in PFA for 10 min, and then incubated with Alcian blue staining solution (1.0% Alcian blue in 0.1 N HCl) overnight at 4 °C. […] Alcian blue-stained cultures were extracted using 6 M guanidine hydrochloride and absorbance was measured at 620 nm.

[3] = test system: human articular cartilage explants; assay: Human articular cartilage explant culture (S.O. staining, DMMB assay, qRT-PCR, immunohistochemistry); type: cell-based
Source text: Human articular cartilage explants of OA patients undergoing total knee replacement surgery were collected (3 mm × 3 mm), with the approval of the Human Ethics Committee of Shanghai Sixth People’s Hospital (2021-048). The full thickness cartilage tissue samples were harvested from tibia plateau avoiding subchondral bone. We control the quality of the explants according to the principle mentioned below. (1) The human articular cartilage explants were harvested from the relatively intact region of the tibia plateau. (2) The explants from different patients were cut from the same position of tibia plateau avoiding subchondral bone. (3) The explants were cut in the size of 3 mm × 3 mm for the DMMB assay and the S.O. staining. (4) To avoid inter-patient and intra-patient sample heterogeneous, explants used within the same drug experiment (vehicle and treatment) must be collected in locations in close proximity and from the same patient. Each explant in the groups that treated with the same drug was from the same patient. The cartilage explants for Safranin-O/Fast-green (S.O.) staining and immunofluorescence were fixed in 4% paraformaldehyde (PFA) (wt/vol) overnight at 4 °C, embedded in paraffin, sliced (7 μm) and mounted on positively charged slides. The cartilage explants (3 mm × 3 mm) for DMMB assay and S.O. staining were harvested and placed in 24-well plates and cultured in 1 ml of serum-free F12 culture media for 24 h. n ≥ 4 patients were assessed. The media was then replaced with F12 culture media containing serum, added 1 ng/ml IL-1β, Celecoxib, Grapiprant, HL-43, and explants were cultured for a further 7 days. The culture media was collected for the release of glycosaminoglycans. To quantify GAGs, media were mixed with DMMB in formate buffer and absorbance at 535 nm was determined using a Spectramax plate reader (Molecular Devices, Sunnyvale, CA). […] We calculated the proteoglycan staining area using Image J with a region of interest of a 1 × 1 mm square, drawn at the edge of the cartilage surface under 10× objective. […]

[4] = test system: mouse femoral head cartilage explants; assay: Mouse femoral head cartilage explant culture; type: cell-based; settings: 1 ng/ml IL-1β, 48 h
[5] = test system: 4 × 48-p89-Luc (Sox9 binding enhancer, Col2a1 minimal promoter) in ATDC5 cells; assay: 4 × 48-p89-Luc luciferase reporter assay; type: cell-based, mouse
Description: (§1) Six firefly luciferase reporters were used in the Luciferase assay, including CRE-Luc (PathDetect CRE cis-Reporting System; Stratagene, La Jolla CA) driven by a basic promoter (TATA box) plus four repeats of CRE; Sox9 promoter-Luc contains human SOX9 proximal promoter region (−1034 bp to +67 bp)[45]; 4 × 48-p89-Luc, mouse Col2a1 minimal promoter. AP-1-Luc, Nf-κb-Luc, STAT-Luc were obtained from Stratagene. Chondrocytes were cultured in 24-well plates and 300 ng firefly luciferase reporter constructs were transiently transfected using transfection reagent TransExellent-DNA (Cenji Biotech Inc, China) following manufacturer’s instruction, and 15 ng of the Copia-Renilla luciferase reporter was co-transfected as a normalization control. Cells were treated with the indicated reagents for 48 h after transfection. The Dual-Luciferase measurements were performed in triplicate using the Luciferase assay kit (Promega) and a LUMIstar Omega luminometer (BMG Labtech, Mornington, Australia).

[6] = test system: Sox9 promoter-Luc in ATDC5 cells; assay: Sox9 promoter-Luc luciferase reporter assay; type: cell-based, mouse; settings: 6 h
Description: as §1

[7] = test system: AP-1-Luc in ATDC5 cells; assay: AP-1-Luc luciferase reporter assay; type: cell-based, mouse; settings: 2 ng/ml IL-1β, 30 μM HL-43, 6 h
Description: as §1

[8] = test system: Nf-κb-Luc in ATDC5 cells; assay: NF-κB-Luc luciferase reporter assay; type: cell-based, mouse; settings: 2 ng/ml IL-1β, 30 μM HL-43, 6 h
Description: as §1

Question: Which “Phosphorylation of CREB by Western blotting” value ([1]; chondrocytes, 2 ng/ml IL-1β, 100 nM PGE2, 1 h) does the source give for C[C@H](NC(=O)c1c(-c2ccccc2)nnn1CCOc1ccc(F)cc1)c1ccc(C(=O)O)cc1 [HL-43] here?
Answer: The value was “enhanced by HL-43 in a dose-dependent manner”.

Question: And the “Mmp3/13 expression by Western blotting” value ([1]; primary articular chondrocytes, 1 ng/ml IL-1β, 24 h)?
Answer: The value was “downregulated Mmp3/13 expression in a dose-dependent manner”.

Question: And the “Phosphorylation of STAT3” value ([1]; primary mouse articular chondrocytes, 2 ng/ml IL-1β, 1 h)?
Answer: Its value is “reduced the phosphorylation of STAT3”.

Question: What about the “Phosphorylation of p65 and degradation of IκBα” value ([1]; primary mouse articular chondrocytes, IL-1β, 30 μM HL-43, 1 h) of the same molecule?
Answer: Its value is “little effects”.

Question: What about the “Col2 expression by Western blotting” value ([1]; primary mouse chondrocytes, 24 h) of the same molecule?
Answer: The value was “dose-dependently induced Col2 expression”.

Question: What about the “Chondrogenesis of primary chondrocytes (Alcian blue)” value [2] of the same molecule?
Answer: Its value is “promoted the chondrogenesis of the primary chondrocytes in a dose-dependent manner”.

Question: What about the “Percentage area of proteoglycan by S.O. staining” value ([3]; human OA cartilage explants, 1 week) of the same molecule?
Answer: Its value is “increased with HL-43 treatment in a dose-dependent manner”.

Question: And the “Immunohistochemistry of ACAN, SOX9, MMP13, COLX” value ([3]; human cartilage explants)?
Answer: Its value is “inducted anabolic factors (ACAN and SOX9), and suppressed catabolic factor (MMP13), and hypertrophic marker (COLX)”.

Question: What about the “Expression of anabolic factors (COL2A1, ACAN, SOX9) and catabolic factor (MMP13), qRT-PCR” value ([3]; human explants, 1 ng/ml IL-1β, 24 h, Celecoxib 10 μM, Grapiprant and HL-43 30 μM) of the same molecule?
Answer: The value was “best efficacy”.

Question: And the Mmp13 immunohistochemistry staining [4]?
Answer: Its Mmp13 immunohistochemistry staining is “reduced immunohistochemistry staining for the catabolic marker Mmp13”.

Question: And the “Proteoglycan content by S.O. staining” value [4]?
Answer: Its value is “favorable effect on the proteoglycan content”.

Question: And the “4 × 48-p89-Luc reporter activity” value [5]?
Answer: The value was “dose-dependently increased”.

Question: What about the “Sox9 promoter-Luc activity after IL-1β” value ([6]; 2 ng/ml IL-1β) of the same molecule?
Answer: The value was “partially rescued the Sox9 transcriptional expression in a dose-dependent manner”.

Question: And the “Sox9 promoter-Luc activity” value ([6]; without IL-1β)?
Answer: The value was “increased by HL-43 stimulation in a dose-dependent manner”.

Question: What about the “AP-1 luciferase reporter activity” value [7] of the same molecule?
Answer: The value was “not AP-1 or NF-κB”.

Question: What about the “NF-κB luciferase reporter activity” value [8] of the same molecule?
Answer: Its value is “not AP-1 or NF-κB”.
